These are literature values, as cited in US5656291A, “Controlled release preparation” (Pharmacia & Upjohn Aktiebolag, priority 1995, dated 1997).

The conditions of the series: after oral administration.

As to `CN1CC[C@]23c4c5ccc(O)c4O[C@H]2[C@@H](O)C=C[C@H]3[C@H]1C5` [Morphine], the “duration of analgesic effect” value is 4 to 6 h.
